Results: US11419806B2, “Prebiotic oral care methods using a saccharide” (Colgate-Palmolive Company, priority 2013, dated 2022)

Key:
Assay type in all cases: cell-based
[1] = test system: beneficial oral bacteria and pathogenic oral bacteria; test: Microarray screen, overall prebiotic assessment; conditions: 48 hrs
Protocol: Substrates that were able to increase the metabolic activity of at least one of the above beneficial bacteria while not or only minimally increasing the growth of the pathogenic bacteria are considered to be prebiotic substrates.
(§1) The extent of metabolic activity of the tested bacteria in the presence of the above-mentioned saccharides after 24 hours and 48 hours was investigated through a high throughput phenotype microarray system (PM) for microbial cells (Biolog Inc.). Each PM can contain up to 95 different biochemical compounds (e.g. saccharides) that may act as substrates for bacteria as well as one negative control, not containing the substrates. Microarray plates were used in which the different wells of each plate were pre-loaded (by the manufacturer, Biolog Inc.) with different saccharides to be tested. Each bacterial species was tested using a separate microarray plate. Thus, a single bacterial species was tested with a variety of saccharides on each particular plate. The microarrays are based on redox technology, using cell respiration as a universal reporter. Active cell respiration results in the reduction of a tetrazolium dye and in the formation of a strong color—for example, when using the tetrazolium dye “Biolog Redox Dye Mix D”, the color changes from transparent/colorless to purple when the dye is reduced. The observation of this color change indicates which of the substrates improve the metabolic activity and health of the cells.
(§2) Each bacterial species was collected from blood agar plates (incubated for 48 hours anaerobically at 37° C.) and transferred to an IF-0 Base inoculation fluid (Biolog Inc.), which is a nutritionally poor medium. The resulting cell suspension was adjusted to a transmittance of 42% (relative to the transmittance of the base inoculation fluid with no bacterial species present) at 492 nm using a BioRad SmartSpec 3000 Photometer (the adjustment being effected by adding either further inoculation fluid or further bacteria until the transmittance of 42% was achieved). A 1:5 dilution of this suspension was prepared by mixing 3 mL of the 42% transmittance cell suspension with 15 mL of an inoculation fluid (which inoculation fluid was formed by mixing 11.6 mL sterile water, 62.5 mL IF-0 base inoculation fluid and 0.9 mL of the tetrazolium dye “Biolog Redox Dye mix D”), resulting in a final cell density which was equal to 85% transmittance using a BioRad SmartSpec 3000 Photometer. For each of the saccharides tested, the microarray plate (obtained from the supplier (Biolog Inc.) with saccharides already present in the relevant wells in powder form) was directly inoculated with 100 μL/well of this 85% transmittance cell suspension.
(§3) All plates were incubated in an anaerobic atmosphere at 37° C. Color changes were measured spectrophotometrically at 492 nm (Thermo Scientific Multiskan Ascent) at 24 hrs and 48 hrs using the same plate at both time points. […] After 24 hrs and 48 hrs under continuous shaking in a Multiscan microplate reader, the optical density (OD) of the synthetic medium at 24 hours and 48 hours was measured (using the microplate reader) at a wavelength of 492 nm for each combination of bacterium/saccharide, and for each of their respective controls (i.e. which contained the particular bacterium but no saccharide).
(§4) The experiment was carried out three times for each combination of bacterium with saccharide, with each repeat being carried out on a different day (thus providing three biological replicas). The controls were also carried out three times, as above. The values shown are the average (mean) of the three single values obtained (as detailed above) for each combination of bacterium with saccharide, at 24 hrs and at 48 hrs.
This value was selected in order to exclude low-stimulating metabolites and avoid false positive results.

Porphyromonas gingivalis = test: Phenotype microarray metabolic activity; conditions: P gingivalis
Protocol: as §1, §2, §3, §4

Streptococcus salivarius = test: Phenotype microarray metabolic activity; conditions: S salivarius
Protocol: as §1, §2, §3, §4

Capnocytophaga sputigena = test: Phenotype microarray metabolic activity; conditions: C sputigena
Protocol: as §1, §2, §3, §4

Actinomyces viscosus = test: Phenotype microarray metabolic activity; conditions: A viscosus
Protocol: as §1, §2, §3, §4

Veillonella parvula = test: Phenotype microarray metabolic activity; conditions: V parvula
Protocol: as §1, §2, §3, §4

Streptococcus gordonii = test: Phenotype microarray metabolic activity; conditions: S gordonii
Protocol: as §1, §2, §3, §4

Streptococcus mutans = test: Phenotype microarray metabolic activity; conditions: S mutans
Protocol: as §1, §2, §3, §4

Fusobacterium nucleatum = test: Phenotype microarray metabolic activity; conditions: F nucleatum
Protocol: as §1, §2, §3, §4

Streptococcus sobrinus = test: Phenotype microarray metabolic activity; conditions: S sobrinus
Protocol: as §1, §2, §3, §4

Streptococcus mitis = test: Phenotype microarray metabolic activity; conditions: S mitis
Protocol: as §1, §2, §3, §4

Prevotella intermedia = test: Phenotype microarray metabolic activity; conditions: P intermedia
Protocol: as §1, §2, §3, §4

Actinomyces naeslundii = test: Phenotype microarray metabolic activity; conditions: A naeslundii
Protocol: as §1, §2, §3, §4

S sanguinis = test: Phenotype microarray metabolic activity
Protocol: as §1, §2, §3, §4

Tannerella forsythia = test: Phenotype microarray metabolic activity; conditions: T forsythia
Protocol: as §1, §2, §3, §4

[2] = test system: Aggregatibacter actinomycetemcomitans; test: Phenotype microarray metabolic activity; conditions: A actinomycetemcomitans
Protocol: as §1, §2, §3, §4

In the case of `OC[C@H]1O[C@@](CO)(O[C@H]2O[C@H](CO)[C@@H](O)[C@H](O)[C@H]2O)[C@@H](O[C@H]2O[C@H](CO)[C@@H](O)[C@H](O)[C@H]2O)[C@@H]1O` [D-Melezitose, (2R,3R,4S,5S,6R)-2-[[(2S,3S,4R,5R)-4-hydroxy-2,5-bis(hydroxymethyl)-3-[[(2R,3R,4S,5S,6R)-3,4,5-trihydroxy-6-(hydroxymethyl)-2-tetrahydropyranyl]oxy]-2-tetrahydrofuranyl]oxy]-6-(hydroxymethyl)tetrahydropyran-3,4,5-triol], the “prebiotic effects (metabolic activity, threshold value 2)” value [1] is reported as “exhibited prebiotic effects”, the “metabolic activity: OD 492 nm divided by OD of control (control = 1)” value (“metabolic activity: OD 492 nm divided” below) (Porphyromonas gingivalis; 24 hrs) is reported as 0.7783 and the “metabolic activity: OD 492 nm divided” value (Porphyromonas gingivalis; 48 hrs) is reported as 0.7811. The “metabolic activity: OD 492 nm divided” value (Streptococcus salivarius; 24 hrs) was 1.0195, the “metabolic activity: OD 492 nm divided” value (Streptococcus salivarius; 48 hrs) was 0.9869 and the “metabolic activity: OD 492 nm divided” value (Capnocytophaga sputigena; 24 hrs) was 0.5937. The “metabolic activity: OD 492 nm divided” value (Capnocytophaga sputigena; 48 hrs) was 0.9124, the “metabolic activity: OD 492 nm divided” value (Actinomyces viscosus; 24 hrs) was 1.7502 and the “metabolic activity: OD 492 nm divided” value (Actinomyces viscosus; 48 hrs) was 2.9576. The “metabolic activity: OD 492 nm divided” value (Veillonella parvula; 24 hrs) was 0.9056, the “metabolic activity: OD 492 nm divided” value (Veillonella parvula; 48 hrs) was 0.7447 and the “metabolic activity: OD 492 nm divided” value (Streptococcus gordonii; 24 hrs) was 1.0421. The “metabolic activity: OD 492 nm divided” value (Streptococcus gordonii; 48 hrs) was 0.9733, the “metabolic activity: OD 492 nm divided” value (Streptococcus mutans; 24 hrs) was 1.0420 and the “metabolic activity: OD 492 nm divided” value (Streptococcus mutans; 48 hrs) was 0.9402. For the same molecule, the “metabolic activity: OD 492 nm divided” value (Fusobacterium nucleatum; 24 hrs) was 0.9719, the “metabolic activity: OD 492 nm divided” value (Fusobacterium nucleatum; 48 hrs) was 0.8307 and the “metabolic activity: OD 492 nm divided” value (Streptococcus sobrinus; 24 hrs) was 1.1016. The “metabolic activity: OD 492 nm divided” value (Streptococcus sobrinus; 48 hrs) was 1.0504, the “metabolic activity: OD 492 nm divided” value (Streptococcus mitis; 24 hrs) was 1.1736 and the “metabolic activity: OD 492 nm divided” value (Streptococcus mitis; 48 hrs) was 1.0570. The “metabolic activity: OD 492 nm divided” value (Prevotella intermedia; 24 hrs) was 1.0189, the “metabolic activity: OD 492 nm divided” value (Prevotella intermedia; 48 hrs) was 0.9864 and the “metabolic activity: OD 492 nm divided” value (Actinomyces naeslundii; 24 hrs) was 1.5398. The “metabolic activity: OD 492 nm divided” value (Actinomyces naeslundii; 48 hrs) was 2.0357, the “metabolic activity: OD 492 nm divided” value (S sanguinis; 24 hrs) was 1.0227 and the “metabolic activity: OD 492 nm divided” value (S sanguinis; 48 hrs) was 1.0532. The “metabolic activity: OD 492 nm divided” value (Tannerella forsythia; 24 hrs) was 1.0374, the “metabolic activity: OD 492 nm divided” value (Tannerella forsythia; 48 hrs) was 0.9912 and the “metabolic activity: OD 492 nm divided” value ([2]; 24 hrs) was 0.8425. For the same molecule, the “metabolic activity: OD 492 nm divided” value ([2]; 48 hrs) was 0.7710.
